US11465965B2, “Double-headed protease inhibitor” (UBE INDUSTRIES, LTD., priority 2017, dated 2022)
Counter-ions that a name gives are not always drawn. Like-named read-outs stand apart in the source and are kept apart here.

Key:
[1] = biological target: T1, Human recombinant enteropeptidase (Homo sapiens, UniProt P98073); assay: Human enteropeptidase inhibition test; assay type: biochemical; settings: read-out: Inhibition rate (enteropeptidase); for inhibition at 0.001 µM: compound concentration 1 nM
T1 construct: purchased BIO Vision Inc. 7529-50
T1 sequence (P98073 whole entry): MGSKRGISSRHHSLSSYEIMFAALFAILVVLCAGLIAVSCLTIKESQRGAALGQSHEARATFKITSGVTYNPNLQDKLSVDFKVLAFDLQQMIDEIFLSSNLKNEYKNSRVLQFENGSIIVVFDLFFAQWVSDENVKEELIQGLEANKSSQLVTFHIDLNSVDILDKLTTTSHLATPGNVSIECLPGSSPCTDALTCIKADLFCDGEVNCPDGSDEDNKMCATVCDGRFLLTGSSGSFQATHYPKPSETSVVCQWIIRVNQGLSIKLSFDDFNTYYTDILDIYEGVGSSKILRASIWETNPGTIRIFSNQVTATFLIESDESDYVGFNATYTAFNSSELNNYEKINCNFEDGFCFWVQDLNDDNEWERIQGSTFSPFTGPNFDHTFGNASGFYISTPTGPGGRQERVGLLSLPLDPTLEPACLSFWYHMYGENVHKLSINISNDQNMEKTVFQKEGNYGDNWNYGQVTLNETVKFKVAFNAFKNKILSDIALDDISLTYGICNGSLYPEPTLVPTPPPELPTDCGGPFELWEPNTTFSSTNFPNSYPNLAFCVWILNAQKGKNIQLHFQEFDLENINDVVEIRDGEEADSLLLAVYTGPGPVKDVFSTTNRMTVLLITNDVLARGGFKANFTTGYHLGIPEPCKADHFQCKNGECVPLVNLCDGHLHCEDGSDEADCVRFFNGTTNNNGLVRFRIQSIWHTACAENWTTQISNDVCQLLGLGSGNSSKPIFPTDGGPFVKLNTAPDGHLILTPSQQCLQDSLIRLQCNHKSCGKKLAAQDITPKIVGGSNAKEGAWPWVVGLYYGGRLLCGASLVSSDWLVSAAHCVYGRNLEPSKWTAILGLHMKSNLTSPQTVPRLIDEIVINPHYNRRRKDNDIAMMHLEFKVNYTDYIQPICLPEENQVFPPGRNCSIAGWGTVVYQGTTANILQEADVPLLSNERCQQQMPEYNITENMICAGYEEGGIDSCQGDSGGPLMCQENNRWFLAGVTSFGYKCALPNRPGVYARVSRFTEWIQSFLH
Method: (Test Example 1): Human Enteropeptidase Inhibition Test
Human recombinant enteropeptidase (manufactured by BIO Vision Inc., catalog no.: 7529-50) was diluted with an assay buffer (50 mM tricine (pH8.0), 0.01 W/V % Tween 20, 10 mM CaCl2) to prepare an […] enzyme solution. Then, 5FAM-Abu-Gly-Asp-Asp-Lys-Ile-Val-Gly-Gly-Lys (CPQ2)-Lys-Lys-NH2 (manufactured by CHINESE PEPTIDE COMPANY, purity: 94.5) was diluted with the assay buffer to prepare a 1.5 μM substrate solution. Each test compound was dissolved into DMSO, then diluted with the assay buffer 100 times, and further appropriately diluted with an assay buffer comprising 1% DMSO to prepare each compound solution. 10 μL of the compound solution, 15 μL of the assay buffer, and 50 μL of the substrate solution were added to a 96 well black plate (manufactured by Thermo Fisher Scientific Inc., code no.: 9502867), mixed, then 25 μL of the enzyme solution was added thereto, and mixed to start the reaction. Fluorescence intensities at excitation wavelength 485 nm and fluorescence wavelength 535 nm were measured by using a fluorescence plate reader (Flex station 3) (Test compound addition group). Also, the same reaction as described above except for not adding each test compound was carried out (Test compound non-addition group). Additionally, the same reaction as described above except for not adding each test compound and the enzyme was carried out (Control group). Inhibition rate was calculated by the following equation using fluorescence intensity after 20 minutes of reaction start. Inhibition rate (%)=(1−(fluorescence intensity of Test compound addition group−fluorescence intensity of Control group)÷(fluorescence intensity of Test compound non-addition group−fluorescence intensity of Control group))×100

[2] = biological target: T2, Human recombinant trypsin (Homo sapiens, UniProt P07477); assay: Human trypsin inhibition test; assay type: biochemical; settings: 20 minutes after reaction start, read-out: Inhibition rate (trypsin); for inhibition at 0.001 µM: compound concentration 1 nM; for inhibition at 0.01 µM: compound concentration 10 nM; for inhibition at 0.1 µM: compound concentration 100 nM
T2 construct: purchased Wako Pure Chemical Industries, Ltd. 206-17171
Method: (Test Example 2): Human Trypsin Inhibition Test
Human recombinant trypsin (manufactured by Wako Pure Chemical Industries, Ltd., code no.: 206-17171) was diluted with an assay buffer (0.1 M Tris-HCl (pH8.0), 0.15 M NaCl, 10 mM CaCl2, 0.05% Brij35) to prepare a 10 ng/mL enzyme solution. Then, Boc-Phe-Ser-Arg-MCA (manufactured by PEPTIDE INSTITUTE, INC., code no.: 3107-v) was diluted with the assay buffer to prepare a 40 μM substrate solution. Each test compound was dissolved into DMSO, then diluted with the assay buffer 100 times, and further appropriately diluted with an assay buffer comprising 1% DMSO to prepare each compound solution. 10 μL of the compound solution, 15 μL of the assay buffer, and 50 μL of the substrate solution were added to a 96 well black plate (manufactured by Thermo Fisher Scientific Inc., code no.: 9502867), mixed, and then 25 μL of the enzyme solution was added thereto, and mixed to start the reaction. Fluorescence intensities at excitation wavelength 355 nm and fluorescence wavelength of 460 nm were measured by using a fluorescence plate reader (Flex station 3) (Test compound addition group). Also, the same reaction as described above except for not adding each test compound was carried out (Test compound non-addition group). Additionally, the same reaction as described above except for not adding each test compound and the enzyme was carried out (Control group). Inhibition rate was calculated by the following equation using fluorescence intensity after 20 minutes of reaction start. Inhibition rate (%)=(1−(fluorescence intensity of Test compound addition group−fluorescence intensity of Control group)[…](fluorescence intensity of Test compound non-addition group−fluorescence intensity of Control group))×100

HFD-fed mouse = assay: Fecal protein concentration-increasing test by single administration using HFD-fed mouse; assay type: in vivo; settings: 24 h, HFD-fed mice, vs vehicle group, read-out: Ratio for an increase of protein concentration in feces; for response vs control in vivo at 30 mg/kg: single oral dose 30 mg/kg
Text: (Test Example 3): Fecal Protein Concentration-Increasing Test by Single Administration Using HFD-Fed Mouse
High fat diet-fed (HFD-fed) mice (D-12492 diet, male, ICR, 6 week old) were orally administered with a 0.5 W/V % methylcellulose suspension comprising each test compound (Compound administration group, 4 or 5 mice/group) or a 0.5 W/V % methylcellulose suspension (Compound non-administration group (Vehicle group), 5, 6, or 7 mice/group), and whole feces of the day were collected. Dried feces were dissolved into a 0.5N aqueous sodium hydroxide solution, followed by centrifugation at 3500 rpm. Then each protein concentration in the resulting supernatant was determined (Lowry method), and the ratio for an increase of protein concentration in feces was calculated by the following equation using the protein concentration in feces contained in 1 g of feces (mg/g feces). Ratio for an increase of protein concentration in feces−(average protein concentration in feces of Compound administration group)[…](average protein concentration in feces of Compound non-administration group)

DIO mouse = assay: Anti-obesity effect test using DIO mouse; assay type: in vivo; settings: 336 h, DIO mice, vs vehicle group, read-out: Weight loss rate
Method: (Test Example 4): Anti-Obesity Effect Test Using DIO Mouse
Diet-induced obesity (DIO) mice (D-12492 diet, male, C57BL-DIO, 26 to 28-week old) were orally administered with a 0.5 W/V % methylcellulose suspension comprising each test compound (Compound administration group, 5 or 6 mice/group) or a 0.5 W/V % methylcellulose suspension (Compound non-administration group (Vehicle group), 6 mice/group) once daily for 2 weeks. Weight loss rate was calculated by the following equation. Weight loss rate (%) of each Compound administration group−(1−average weight at the last day of the test of each Compound administration group/average weight at the last day of the test of Vehicle group)×100

[3] = Rat pharmacokinetic (PK) test (plasma concentration after oral administration); settings: male, SD
Method: Each test compound was suspended in a 0.5 W/V % methylcellulose 400 solution to prepare a suspension, and the resulting suspension was orally administered to a male SD rat of 7 to 8-week old (weight: 180 to 250 g). After 0.25, 0.5, 1, 2, 4, 8, and 24 hour(s) of the administration of each test compound, blood (EDTA-added blood) was collected from jugular vein under isoflurane inhalation anesthesia. […] To the resulting blood plasma was added acetonitrile, a mixed solvent of acetonitrile and water (1:1 (V/V)), or a mixed solvent of acetonitrile and 0.1 M hydrochloric acid (1:1 (V/V)), then the resulting mixture was mixed at 750 rpm for 3 minutes in a shaker, and subjected to centrifugal separation at 3700 rpm for 2 minutes in a centrifuge to remove proteins. The resulting sample was subjected to LC (liquid chromatography)/MS (mass spectrometry) measurement under the following measurement conditions.
Each compound concentration in blood plasma at each time of blood collection was calculated according to the internal standard method, and, area under the plasma concentration vs. time curve (AUCall (Area Under Curve)) was calculated according to the trapezoidal method.
The LC and MS systems used in the present test are as follows.
LC: LC20 or LC30 HPLC system manufactured by Shimadzu Corporation
Column: Phenomenex Kinetex C18 (50×2.1 mm, 2.6 μm)
Column temperature: 40° C.
Mobile phase A: aqueous solution with 0.1% formic acid, Mobile phase B: 50% acetonitrile/methanol solution with 0.1% formic acid

[4] = 20 minutes after reaction start
[5] = compound concentration 10 nM, 20 minutes after reaction start
[6] = compound concentration 100 nM, 20 minutes after reaction start

SMILES	inhibition at 0.001 µM [1, 4] [%]	inhibition at 0.01 µM [1, 5] [%]	inhibition at 0.1 µM [1, 6] [%]	inhibition at 0.001 µM [2] [%]	inhibition at 0.01 µM [2] [%]	inhibition at 0.1 µM [2] [%]	AUC ([3]; 10 mg/kg) [ng·h/mL]	response vs control in vivo at 86 mg/kg (HFD-fed mouse; single oral dose 86 mg/kg) [%]	response vs control in vivo at 30 mg/kg (HFD-fed mouse) [%]	inhibition at 0.01 µM [1] [%]	inhibition at 0.1 µM [1] [%]	inhibition in vivo at 100 mg/kg (DIO mouse; oral 100 mg/kg once daily for 2 weeks) [%]	inhibition in vivo at 90 mg/kg (DIO mouse; oral 90 mg/kg once daily for 2 weeks) [%]	AUC ([3]; 9 mg/kg) [ng·h/mL]	inhibition in vivo at 30 mg/kg (DIO mouse; oral 30 mg/kg once daily for 2 weeks) [%]
N=C(N)Nc1ccc(C(=O)Oc2ccc(CNS(=O)(=O)N(CCOCCOCCN([C@@H](CC(=O)O)C(=O)O)S(=O)(=O)NCc3ccc(OC(=O)c4ccc(NC(=N)N)cc4)cc3)[C@@H](CC(=O)O)C(=O)O)cc2)cc1 [2-(b), (2S,13S)-3,12-bis(N-(4-((4-guanidinobenzoyl)oxy)benzyl)sulfamoyl)-6,9-dioxa-3,12-diazatetradecane-1,2,13,14-tetracarboxylic acid trifluoroacetate]	≥ 50	≥ 50	≥ 50	≥ 50	≥ 50	≥ 50	–	≥ 130	–	–	–	–	–	–	–
N=C(N)Nc1ccc(C(=O)Oc2ccc(CNS(=O)(=O)N(CCOCCOCCOCCOCCOCCN([C@@H](CC(=O)O)C(=O)O)S(=O)(=O)NCc3ccc(OC(=O)c4ccc(NC(=N)N)cc4)cc3)[C@@H](CC(=O)O)C(=O)O)cc2)cc1 [5-(b), (2S,22S)-3,21-bis(N-(4-((4-guanidinobenzoyl)oxy)benzyl)sulfamoyl)-6,9,12,15,18-pentaoxa-3,21-diazatricosane-1,2,22,23-tetracarboxylic acid trifluoroacetate]	–	–	–	≥ 50	≥ 50	≥ 50	–	–	≥ 130	≥ 50	≥ 50	–	–	–	–
N=C(N)Nc1ccc(C(=O)Oc2ccc(CNS(=O)(=O)N(CCOCCOCCOCCOCCOCCOCCN([C@@H](CC(=O)O)C(=O)O)S(=O)(=O)NCc3ccc(OC(=O)c4ccc(NC(=N)N)cc4)cc3)[C@@H](CC(=O)O)C(=O)O)cc2)cc1 [6-(b), (2S,25S)-3,24-bis(N-(4-((4-guanidinobenzoyl)oxy)benzyl)sulfamoyl)-6,9,12,15,18,21-hexaoxa-3,24-diazahexacosane-1,2,25,26-tetracarboxylic acid trifluoroacetate]	–	–	–	–	≥ 50	≥ 50	–	–	≥ 130	≥ 50	≥ 50	–	–	–	–
N=C(N)Nc1ccc(C(=O)Oc2ccc(CNS(=O)(=O)N(CCCCN([C@@H](CC(=O)O)C(=O)O)S(=O)(=O)NCc3ccc(OC(=O)c4ccc(NC(=N)N)cc4)cc3)[C@@H](CC(=O)O)C(=O)O)cc2)cc1 [8-(c), (2S,2′S)-2,2′-(butane-1,4-diylbis((N-(4-((4-guanidinobenzoyl)oxy)benzyl)sulfamoyl)azanediyl))disuccinic acid hydrochloride]	–	–	–	–	–	–	–	–	≥ 130	–	–	–	–	–	–
N=C(N)Nc1ccc(C(=O)Oc2ccc(CNS(=O)(=O)N(Cc3cccc(C(=O)NCCOCCOCCOCCOCCNC(=O)c4cccc(CN([C@@H](CC(=O)O)C(=O)O)S(=O)(=O)NCc5ccc(OC(=O)c6ccc(NC(=N)N)cc6)cc5)c4)c3)[C@@H](CC(=O)O)C(=O)O)cc2)cc1 [18-(b), (2S,2′S)-2,2′-((((5,8,11,14-tetraoxa-2,17-diazaoctadecane-1,18-dioyl)bis(3,1-phenylene))bis(methylene))bis(N-(4-((4-guanidinobenzoyl)oxy)benzyl)sulfamoyl)azanediyl))disuccinic acid trifluoroacetate]	–	–	–	≥ 50	≥ 50	≥ 50	–	–	–	≥ 50	≥ 50	–	≥ 4	≤ 100	–

More lines, main results first:

inhibition at 0.001 µM [1, 4] [%]	inhibition at 0.01 µM [1, 5] [%]	inhibition at 0.1 µM [1, 6] [%]	inhibition at 0.001 µM [2] [%]	inhibition at 0.01 µM [2] [%]	inhibition at 0.1 µM [2] [%]	AUC ([3]; 10 mg/kg) [ng·h/mL]	SMILES	response vs control in vivo at 86 mg/kg (HFD-fed mouse; single oral dose 86 mg/kg) [%]	response vs control in vivo at 30 mg/kg (HFD-fed mouse) [%]	inhibition at 0.01 µM [1] [%]	inhibition at 0.1 µM [1] [%]	inhibition in vivo at 100 mg/kg (DIO mouse; oral 100 mg/kg once daily for 2 weeks) [%]	inhibition in vivo at 90 mg/kg (DIO mouse; oral 90 mg/kg once daily for 2 weeks) [%]	AUC ([3]; 9 mg/kg) [ng·h/mL]	inhibition in vivo at 30 mg/kg (DIO mouse; oral 30 mg/kg once daily for 2 weeks) [%]
≥ 50	≥ 50	≥ 50	≥ 50	≥ 50	≥ 50	–	N=C(N)Nc1ccc(C(=O)Oc2ccc(CNS(=O)(=O)N(CCOCCOCCOCCN([C@@H](CC(=O)O)C(=O)O)S(=O)(=O)NCc3ccc(OC(=O)c4ccc(NC(=N)N)cc4)cc3)[C@@H](CC(=O)O)C(=O)O)cc2)cc1 [3-(b), (2S,163)-3,15-bis(N-(4-((4-guanidinobenzoyl)oxy)benzyl)sulfamoyl)-6,9,12-trioxa-3,15-diazaheptadecane-1,2,16,17-tetracarboxylic acid trifluoroacetate]	–	≥ 130	–	–	–	–	–	–
≥ 50	≥ 50	≥ 50	≥ 50	≥ 50	≥ 50	≤ 100	N=C(N)Nc1ccc(C(=O)Oc2ccc(CNS(=O)(=O)N(CCCCN([C@@H](CC(=O)O)C(=O)O)S(=O)(=O)NCc3ccc(OC(=O)c4ccc(NC(=N)N)cc4)cc3)[C@@H](CC(=O)O)C(=O)O)cc2)cc1 [8-(b), (2S,2′S)-2,2′-(butane-1,4-diylbis((N-(4-((4-guanidinobenzoyl)oxy)benzyl)sulfamoyl)azanediyl))disuccinic acid trifluoroacetate]	–	–	–	–	≥ 4	–	–	–
≥ 50	≥ 50	≥ 50	≥ 50	≥ 50	≥ 50	≤ 100	N=C(N)Nc1ccc2c(c1)CCCOc1c(cccc1C(=O)N(CCOCCOCCN(C(=O)c1cccc3c1OCCCc1cc(NC(=N)N)ccc1C(=O)O3)C(CC(=O)O)C(=O)O)C(CC(=O)O)C(=O)O)OC2=O (stereo not shown) [19-(b), 3,12-bis(10-guanidino-13-oxo-6,7,8,13-tetrahydrodibenzo[b,f][1,4]dioxecin-4-carbonyl)-6,9-dioxa-3,12-diazatetradecane-1,2,13,14-tetracarboxylic acid trifluoroacetate]	–	–	–	–	–	–	–	≥ 4
